Data on 16 compounds can be found in ChEMBL document CHEMBL4052662, “Synthesis, docking study and neuroprotective effects of some novel pyrano[3,2-c]chromene derivatives bearing morpholine/phenylpiperazine moiety” (Bioorg Med Chem, 2017).

A short description of assay [1]: Selectivity index, ratio of IC50 for equine serum BuChE to IC50 for electric eel AChE.
The target of another assay is Cholinesterase (Equus caballus, UniProt P81908). Put plainly: Inhibition of equine serum BuChE using butyrylthiocholine iodide as substrate measured for 6 mins by Ellman's method.
Assay [2] has as its target T1, Acetylcholinesterase (Electrophorus electricus, UniProt O42275). Put plainly: Inhibition of electric eel AChE using acetylthiocholine iodide as substrate measured for 6 mins by Ellman's method.
A further assay deals with PC-12. In words: Neuroprotective activity against H2O2-induced cell death in rat PC12 cells assessed as cell viability 10 uM pretreated for three hours followed by H2O2 induction after 12 hrs by MTT assay relative to control. Type of assay: functional. Background: Formazan colour is commonly taken as a measure of viable cells.
Assay [3] addresses T1, Acetylcholinesterase. In words: Mixed-type inhibition of electric eel AChE using varying levels of acetylthiocholine iodide as substrate measured for 2 mins by Lineweaver-Burk plot analysis.
The target in assay [4] is Beta-secretase 1 (Homo sapiens) (UniProt P56817). In words: Inhibition of human BACE1 using Rh-EVNLDAEFK-quencher as substrate measured after 60 mins by FRET assay.
Chain of Beta-secretase 1 (Homo sapiens) (P56817 whole entry): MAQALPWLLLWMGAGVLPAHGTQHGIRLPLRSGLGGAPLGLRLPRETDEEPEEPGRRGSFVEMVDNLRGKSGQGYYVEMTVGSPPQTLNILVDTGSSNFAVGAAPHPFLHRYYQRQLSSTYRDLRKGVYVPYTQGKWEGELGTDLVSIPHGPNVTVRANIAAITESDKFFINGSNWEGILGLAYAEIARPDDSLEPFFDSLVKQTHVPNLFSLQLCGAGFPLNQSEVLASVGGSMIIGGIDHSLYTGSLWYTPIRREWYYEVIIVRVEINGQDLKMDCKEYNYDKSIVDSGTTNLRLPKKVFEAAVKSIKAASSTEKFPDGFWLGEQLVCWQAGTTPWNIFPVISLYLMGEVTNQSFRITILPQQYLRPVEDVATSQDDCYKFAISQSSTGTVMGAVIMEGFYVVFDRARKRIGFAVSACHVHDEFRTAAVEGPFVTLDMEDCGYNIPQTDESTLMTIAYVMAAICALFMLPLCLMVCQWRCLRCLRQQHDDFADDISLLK

T1 sequence (O42275 whole entry): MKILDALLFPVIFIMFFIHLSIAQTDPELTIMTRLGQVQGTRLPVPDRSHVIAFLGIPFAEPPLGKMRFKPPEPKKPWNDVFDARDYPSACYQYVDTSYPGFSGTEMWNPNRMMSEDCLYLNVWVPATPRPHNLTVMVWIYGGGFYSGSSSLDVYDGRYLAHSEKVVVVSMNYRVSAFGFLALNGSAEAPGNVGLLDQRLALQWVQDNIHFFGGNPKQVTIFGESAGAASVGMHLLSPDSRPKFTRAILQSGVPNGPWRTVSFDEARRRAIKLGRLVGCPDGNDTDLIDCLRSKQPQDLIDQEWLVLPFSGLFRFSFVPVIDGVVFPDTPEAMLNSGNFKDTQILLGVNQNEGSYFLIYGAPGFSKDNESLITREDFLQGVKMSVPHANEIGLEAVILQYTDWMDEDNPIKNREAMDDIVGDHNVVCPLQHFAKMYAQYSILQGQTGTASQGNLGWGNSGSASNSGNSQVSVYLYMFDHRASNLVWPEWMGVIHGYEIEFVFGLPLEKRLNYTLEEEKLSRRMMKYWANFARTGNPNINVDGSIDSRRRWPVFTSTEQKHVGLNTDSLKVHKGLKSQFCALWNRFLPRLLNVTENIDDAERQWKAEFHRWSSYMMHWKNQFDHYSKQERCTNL
Chain of Cholinesterase (P81908 whole entry): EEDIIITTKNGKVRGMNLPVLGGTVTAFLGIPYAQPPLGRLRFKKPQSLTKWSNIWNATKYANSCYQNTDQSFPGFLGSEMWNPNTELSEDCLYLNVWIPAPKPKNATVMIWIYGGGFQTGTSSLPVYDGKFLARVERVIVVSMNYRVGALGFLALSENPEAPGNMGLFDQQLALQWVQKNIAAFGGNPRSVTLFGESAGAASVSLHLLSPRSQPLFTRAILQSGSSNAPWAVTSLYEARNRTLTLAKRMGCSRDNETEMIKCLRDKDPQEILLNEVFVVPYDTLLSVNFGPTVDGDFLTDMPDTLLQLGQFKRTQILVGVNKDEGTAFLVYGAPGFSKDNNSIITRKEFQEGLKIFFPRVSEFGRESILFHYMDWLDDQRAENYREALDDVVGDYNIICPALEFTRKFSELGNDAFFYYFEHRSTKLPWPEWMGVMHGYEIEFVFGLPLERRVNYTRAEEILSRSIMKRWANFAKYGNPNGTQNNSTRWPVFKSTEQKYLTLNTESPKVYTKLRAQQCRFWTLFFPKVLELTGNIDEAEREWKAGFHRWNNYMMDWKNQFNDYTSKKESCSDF

Consider `N#CC1=C(NC(=O)CN2CCN(c3ccccc3)CC2)Oc2c(c(=O)oc3ccccc23)C1c1ccccc1` (configuration not stated), for which the Ratio IC50 in assay [1] was determined as 4.5. For the same compound, the figures for the IC50 at Cholinesterase (read-out: IC50) and at Acetylcholinesterase [2] (read-out: IC50) were 52.3 µM and 11.5 µM, respectively.

As to `COc1ccc(C2C(C#N)=C(NC(=O)CN3CCOCC3)Oc3c2c(=O)oc2ccccc32)cc1` (configuration not stated), the Ratio IC50 in assay [1] came to 31.1. Also, the IC50 at Cholinesterase (read-out: IC50) is 63.8 µM; at Acetylcholinesterase [2] (read-out: IC50), 2.05 µM. The Activity in the assay with PC-12 was 78.5%.

On to `COc1ccc(C2C(C#N)=C(NC(=O)CN3CCOCC3)Oc3c2c(=O)oc2ccccc32)c(OC)c1` (configuration not stated), for which the IC50 on Cholinesterase (read-out: IC50) is greater than 100 µM; on Acetylcholinesterase [2] (read-out: IC50) it was 25.6 µM.

`COc1ccc(C2C(C#N)=C(NC(=O)CN3CCOCC3)Oc3c2c(=O)oc2ccccc32)cc1OC` (configuration not stated): the Ratio IC50 in assay [1] amounted to 10.5. The IC50 worked out at 34.2 µM at Cholinesterase (read-out: IC50) and 3.25 µM at Acetylcholinesterase [2] (read-out: IC50). Further, in the assay with PC-12, the Activity was found to be 84.7%.

On to `N#CC1=C(NC(=O)CN2CCN(c3ccccc3)CC2)Oc2c(c(=O)oc3ccccc23)C1c1ccc(Cl)cc1` (configuration not stated), for which, in assay [1], the Ratio IC50 is 14.1. Also, the IC50 was determined as 89.2 µM on Cholinesterase (read-out: IC50) and 6.33 µM at Acetylcholinesterase [2] (read-out: IC50). Moreover, the Activity in the assay with PC-12 was determined as 75%.

With `N#CC1=C(NC(=O)CN2CCN(c3ccccc3)CC2)Oc2c(c(=O)oc3ccccc23)C1c1ccc([N+](=O)[O-])cc1` (configuration not stated), the IC50 entry against Cholinesterase and on Acetylcholinesterase [2] was “Nd(Insoluble)” each time.

Compound `COc1ccc(C2C(C#N)=C(NC(=O)CN3CCN(c4ccccc4)CC3)Oc3c2c(=O)oc2ccccc32)cc1` (configuration not stated) returned a Ki at Acetylcholinesterase [3] of 3.19 µM. The Ratio IC50 in assay [1] was 40.8. Also, the IC50 came to 45.7 µM at Cholinesterase (read-out: IC50) and 1.12 µM on Acetylcholinesterase [2] (read-out: IC50). The same compound yielded an inhibition in assay [4] of 18%. Moreover, in the assay with PC-12, the Activity came to 84.7%.

Consider `COc1ccc(C2C(C#N)=C(NC(=O)CN3CCN(c4ccccc4)CC3)Oc3c2c(=O)oc2ccccc32)c(OC)c1` (configuration not stated), for which the results for the IC50 on Cholinesterase (read-out: IC50) and at Acetylcholinesterase [2] (read-out: IC50) were greater than 100 µM and 31.4 µM, respectively.

With `N#CC1=C(NC(=O)CN2CCN(c3ccccc3)CC2)Oc2c(c(=O)oc3ccccc23)C1c1ccc(F)cc1` (configuration not stated), the IC50 result on Cholinesterase and against Acetylcholinesterase [2] was “Nd(Insoluble)” in each case.

Turning to `N#CC1=C(NC(=O)CN2CCOCC2)Oc2c(c(=O)oc3ccccc23)C1c1ccc(F)cc1` (configuration not stated), the IC50 at Cholinesterase (read-out: IC50) and at Acetylcholinesterase [2] (read-out: IC50) was greater than 100 µM throughout.

For the compound `N#CC1=C(NC(=O)CN2CCOCC2)Oc2c(c(=O)oc3ccccc23)C1c1ccccc1` (configuration not stated), the Ratio IC50 in assay [1] came to 3.7. In addition, the IC50 on Cholinesterase (read-out: IC50) was 88.4 µM; at Acetylcholinesterase [2] (read-out: IC50) it was 23.9 µM.

Take `N#CC1=C(NC(=O)CN2CCOCC2)Oc2c(c(=O)oc3ccccc23)C1c1ccc(Cl)cc1` (configuration not stated): in assay [1], the Ratio IC50 came out at 6.3. Besides, the figures for the IC50 at Cholinesterase (read-out: IC50) and on Acetylcholinesterase [2] (read-out: IC50) were 91.5 µM and 14.6 µM, respectively.

On to `N#CC1=C(NC(=O)CN2CCOCC2)Oc2c(c(=O)oc3ccccc23)C1c1cccs1` (configuration not stated), for which the IC50 at Cholinesterase (read-out: IC50) and on Acetylcholinesterase [2] (read-out: IC50) was greater than 100 µM throughout.

As to `N#CC1=C(NC(=O)CN2CCOCC2)Oc2c(c(=O)oc3ccccc23)C1c1ccc([N+](=O)[O-])cc1` (configuration not stated), the IC50 at Cholinesterase (read-out: IC50) and on Acetylcholinesterase [2] (read-out: IC50) was greater than 100 µM in each case.

For the compound `Cc1ccc(C2C(C#N)=C(NC(=O)CN3CCN(c4ccccc4)CC3)Oc3c2c(=O)oc2ccccc32)c(C)c1` (configuration not stated), the IC50 is greater than 100 µM on Cholinesterase (read-out: IC50) and 32.9 µM at Acetylcholinesterase [2] (read-out: IC50).

On to `COc1ccc(C2C(C#N)=C(NC(=O)CN3CCN(c4ccccc4)CC3)Oc3c2c(=O)oc2ccccc32)cc1OC` (configuration not stated), for which, in assay [1], the Ratio IC50 came to 41. The IC50 on Cholinesterase (read-out: IC50) was 58.2 µM; on Acetylcholinesterase [2] (read-out: IC50) it was 1.42 µM. In addition, in the assay with PC-12, the Activity amounted to 76%.

A word on the IC50: it is the concentration at which inhibition is half-maximal. A word on the Ki: it is a measure of affinity in units of concentration, obtained from inhibition or displacement. Read a low Ki as a stronger hold on the target. Broadly, the inhibition is how much of the control response was suppressed. Higher therefore signals strong suppression.
